Reference: the NIST ThermoML archive (doi:10.1016/j.jct.2003.09.005)
Values joined by “and” are separate entries in the source; they are usually repeats but may differ in a detail not shown here. Identical values can stand only once. Numbers after ± are expanded uncertainties.

Key:
[1] = xn = mol fraction of the nth substance listed; settings: 298.15 K, 101.33 kPa, Liquid, Vibrating tube method
[2] = 298.15 K; 101.33 kPa; Liquid

| Compound | mass density [2] | other results |
| --- | --- | --- |
| O=C1OCCO1 [ethylene carbonate] + COCCOC |  | mass density ([1]; x2 = 0.4158): 1099.62 ± 0.57 kg/m3 and 1099.78 ± 0.56 kg/m3 and 1100.01 ± 0.56 kg/m3 |
| CC#N [acetonitrile] | 776.69 ± 0.62 kg/m3 |  |
| C1CCOC1 [tetrahydrofuran] | 882.01 ± 0.54 kg/m3 |  |
| O=C1OCCO1 [ethylene carbonate] + CC#N |  | mass density ([1]; x2 = 0.5533): 1070.54 ± 0.55 kg/m3 and 1071.16 ± 0.54 kg/m3 |
| CCOC(C)=O [ethyl acetate] | 894.51 ± 0.54 kg/m3 |  |
| COCCOC [1,2-dimethoxyethane] | 861.43 ± 0.56 kg/m3 |  |
| O=C1OCCO1 [ethylene carbonate] + CCOC(C)=O |  | mass density ([1]; x2 = 0.4577): 1118.46 ± 0.58 kg/m3 [middle of 4 runs] |
| O=C1OCCO1 [ethylene carbonate] + C1CCOC1 |  | mass density ([1]; x2 = 0.4631): 1110.32 ± 0.57 kg/m3 and 1109.98 ± 0.57 kg/m3 and 1109.85 ± 0.57 kg/m3 |
